Assay results taken from article PMC9097188, “Design, Synthesis, and Molecular Modeling Studies of a Novel Benzimidazole as an Aromatase Inhibitor” (ACS Omega, 2022).
Where two headings read alike, the source gives them in different places.

How the values were obtained:
human aromatase = target: T1, human aromatase (Homo sapiens, UniProt P11511); assay: Aromatase (CYP19A) Inhibitor Screening Kit (Fluorimetric), BioVision; format: biochemical
T1 construct: purchased BioVision
T1 sequence (P11511 1-503): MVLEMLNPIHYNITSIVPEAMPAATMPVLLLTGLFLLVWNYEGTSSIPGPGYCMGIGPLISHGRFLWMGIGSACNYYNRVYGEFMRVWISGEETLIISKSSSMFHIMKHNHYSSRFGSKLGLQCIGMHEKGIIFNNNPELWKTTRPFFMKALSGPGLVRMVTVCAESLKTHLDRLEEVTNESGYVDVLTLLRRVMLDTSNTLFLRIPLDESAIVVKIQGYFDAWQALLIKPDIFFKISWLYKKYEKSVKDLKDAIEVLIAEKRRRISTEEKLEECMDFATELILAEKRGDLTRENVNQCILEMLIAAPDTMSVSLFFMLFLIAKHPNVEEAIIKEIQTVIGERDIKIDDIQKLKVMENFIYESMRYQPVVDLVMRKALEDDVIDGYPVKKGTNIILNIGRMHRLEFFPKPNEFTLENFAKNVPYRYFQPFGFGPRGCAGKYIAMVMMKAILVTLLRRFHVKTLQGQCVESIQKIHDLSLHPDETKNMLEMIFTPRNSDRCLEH
From the text: An in vitro fluorescence-based test (Aromatase (CYP19A) Inhibitor Screening Kit (Fluorimetric), BioVision) was used to determine the inhibitory activity of the produced compounds against human aromatase.
The BioVision Aromatase (CYP19A) Inhibitor Screening Kit (Fluorometric) was used to carry out this experiment.

[1] = test system: A549 (lung carcinoma cell line); assay: MTT cytotoxicity assay, A549; format: cell-based; conditions: Homo sapiens, mean of four independent studies, read-out: IC50 against A549
Method: (§1) In this study, all compounds were tested for antiproliferative activity using an MTT assay with doxorubicin as a control against MCF-7 (human breast adenocarcinoma cell line), A549 (lung carcinoma cell line), HepG2 (human liver carcinoma cell line), HeLa (cervical cell line), and C6 (rat glioma cell line) cell lines. Table 1 summarizes the results of four independent studies as the mean IC50 value (half-maximum inhibitory concentration).
(§2) MTT tests were used to screen the anticancer activities of compounds 5a–i. The MTT assays were carried out as stated previously.[16],[17] The anticancer activity of the final compounds was tested on […]: A549 (lung carcinoma cell line), HeLa (cervical cell line), MCF-7 (human breast adenocarcinoma cell line), HepG2 (human liver carcinoma cell line), C6 (rat glioma cell line), and NIH3T3 […] (mouse embryo fibroblast cell line). In the MTT experiments, doxorubicin and Hoechst 33342 were employed as reference drugs.

[2] = test system: MCF-7 (human breast adenocarcinoma cell line); assay: MTT cytotoxicity assay, MCF-7; format: cell-based; conditions: mean of four independent studies, read-out: IC50 against MCF-7
Method: as §1, §2

[3] = test system: C6 (rat glioma cell line); assay: MTT cytotoxicity assay, C6; format: cell-based; conditions: mean of four independent studies, read-out: IC50 against C6
Method: as §1, §2

[4] = test system: HeLa (cervical cell line); assay: MTT cytotoxicity assay, HeLa; format: cell-based; conditions: Homo sapiens, mean of four independent studies, read-out: IC50 against HeLa
Method: as §1, §2

[5] = test system: HepG2 (human liver carcinoma cell line); assay: MTT cytotoxicity assay, HepG2; format: cell-based; conditions: mean of four independent studies, read-out: IC50 against HepG2
Method: as §1, §2

aromatase = conditions: 3D-QSAR data set, IC50 converted to pIC50; SI reference list; cited from earlier work
[6] = fluorimetric kit, compound dissolved in acetonitrile, read-out: IC50 aromatase inhibition
[7] = experimental validation of 3D-QSAR model, read-out: IC50 (aromatase, Table 5)

## O=C(CSc1nnc(-c2ccc3nc(-c4ccc(O)cc4)[nH]c3c2)o1)N1CCN(Cc2ccccc2)CC1 [5a, 2-((5-(2-(4-Hydroxyphenyl)-1H-benzo[d]imidazol-6-yl)-1,3,4-oxadiazol-2-yl)thio)-1-(4-benzylpiperazin-1-yl)ethan-1-one]
Human aromatase; [6]
  IC50: 38.6 ± 1.13 µM
[1]
  IC50: ≥ 100 µM
[2]; Homo sapiens, MCF7, MTT assay
  IC50: 9.96 ± 0.312 µM
[2]; MTT assay
  IC50: 9.06 ± 0.311 µM
[3]
  IC50: ≥ 100 µM
other
  melting point: 266.5 to 267.9 °C
[4]
  IC50: ≥ 100 µM
[5]
  IC50: 38.8 ± 0.887 µM

## O=C(CSc1nnc(-c2ccc3nc(-c4ccc(O)cc4)[nH]c3c2)o1)N1CCN(Cc2ccc(Cl)cc2)CC1 [5b, 2-((5-(2-(4-Hydroxyphenyl)-1H-benzo[d]imidazol-6-yl)-1,3,4-oxadiazol-2-yl)thio)-1-(4-(4-chlorobenzyl)piperazin-1-yl)ethan-1-one]
Human aromatase; [7]
  IC50: 1.48 µM
Human aromatase; [6]
  IC50: 1.47 ± 0.062 µM
[1]
  IC50: ≥ 100 µM
[2]; Homo sapiens, MCF7, MTT assay
  IC50: 5.13 ± 0.211 µM
[2]; MTT assay
  IC50: 6.55 ± 0.287 µM
[3]
  IC50: 24.7 ± 1.21 µM
other
  melting point: 155.5 to 157.4 °C
[4]
  IC50: ≥ 100 µM
[5]
  IC50: 55.2 ± 1.46 µM

## O=C(CSc1nnc(-c2ccc3nc(-c4ccc(O)cc4)[nH]c3c2)o1)N1CCN(Cc2ccc(F)cc2)CC1 [5c, 2-((5-(2-(4-Hydroxyphenyl)-1H-benzo[d]imidazol-6-yl)-1,3,4-oxadiazol-2-yl)thio)-1-(4-(4-fluorobenzyl)piperazin-1-yl)ethan-1-one]
Human aromatase; [7]
  IC50: 2.51 µM
Human aromatase; [6]
  IC50: 2.51 ± 0.124 µM
[1]
  IC50: ≥ 100 µM
[2]; Homo sapiens, MCF7, MTT assay
  IC50: 6.55 ± 0.287 µM
[2]; MTT assay
  IC50: 5.13 ± 0.211 µM
[3]
  IC50: 18.2 ± 1.46 µM
other
  melting point: > 400 °C
[5]
  IC50: 17.3 ± 1.1 µM

## COc1ccc(-c2nc3ccc(-c4nnc(SCC(=O)N5CCN(Cc6ccccc6)CC5)o4)cc3[nH]2)cc1 [5d, 2-((5-(2-(4-Methoxyphenyl)-1H-benzo[d]imidazol-6-yl)-1,3,4-oxadiazol-2-yl)thio)-1-(4-benzylpiperazin-1-yl)ethan-1-one]
[1]
  IC50: ≥ 100 µM
[2]; Homo sapiens, MCF7, MTT assay
  IC50: ≥ 100 µM
[3]
  IC50: 88.5 ± 3.41 µM
other
  melting point: 172.6 to 174.8 °C
[4]
  IC50: ≥ 100 µM
[5]
  IC50: ≥ 100 µM

## COc1ccc(-c2nc3ccc(-c4nnc(SCC(=O)N5CCN(Cc6ccc(Cl)cc6)CC5)o4)cc3[nH]2)cc1 [5e, 2-((5-(2-(4-Methoxyphenyl)-1H-benzo[d]imidazol-6-yl)-1,3,4-oxadiazol-2-yl)thio)-1-(4-(4-chlorobenzyl)piperazin-1-yl)ethan-1-one]
[1]
  IC50: ≥ 100 µM
[2]; Homo sapiens, MCF7, MTT assay
  IC50: 45.6 ± 2.11 µM
[3]
  IC50: ≥ 100 µM
other
  melting point: 138.2 to 140.1 °C
[4]
  IC50: ≥ 100 µM
[5]
  IC50: ≥ 100 µM

## COc1ccc(-c2nc3ccc(-c4nnc(SCC(=O)N5CCN(Cc6ccc(F)cc6)CC5)o4)cc3[nH]2)cc1 [5f, 2-((5-(2-(4-Methoxyphenyl)-1H-benzo[d]imidazol-6-yl)-1,3,4-oxadiazol-2-yl)thio)-1-(4-(4-fluorobenzyl)piperazin-1-yl)ethan-1-one]
[1]
  IC50: ≥ 100 µM
[2]; Homo sapiens, MCF7, MTT assay
  IC50: ≥ 100 µM
[3]
  IC50: ≥ 100 µM
other
  melting point: 133.4 to 135.8 °C
[4]
  IC50: ≥ 100 µM
[5]
  IC50: ≥ 100 µM

## CCOc1ccc(-c2nc3ccc(-c4nnc(SCC(=O)N5CCN(Cc6ccccc6)CC5)o4)cc3[nH]2)cc1 [5g, 2-((5-(2-(4-Ethoxyphenyl)-1H-benzo[d]imidazol-6-yl)-1,3,4-oxadiazol-2-yl)thio)-1-(4-benzylpiperazin-1-yl)ethan-1-one]
[1]
  IC50: ≥ 100 µM
[2]; Homo sapiens, MCF7, MTT assay
  IC50: ≥ 100 µM
[3]
  IC50: ≥ 100 µM
other
  melting point: 184.4 to 186.8 °C
[4]
  IC50: ≥ 100 µM
[5]
  IC50: ≥ 100 µM

## CCOc1ccc(-c2nc3ccc(-c4nnc(SCC(=O)N5CCN(Cc6ccc(Cl)cc6)CC5)o4)cc3[nH]2)cc1 [5h, 2-((5-(2-(4-Ethoxyphenyl)-1H-benzo[d]imidazol-6-yl)-1,3,4-oxadiazol-2-yl)thio)-1-(4-(4-chlorobenzyl)piperazin-1-yl)ethan-1-one]
[1]
  IC50: ≥ 100 µM
[2]; Homo sapiens, MCF7, MTT assay
  IC50: ≥ 100 µM
[3]
  IC50: ≥ 100 µM
other
  melting point: 177.5 to 178.4 °C
[4]
  IC50: ≥ 100 µM
[5]
  IC50: ≥ 100 µM

## CCOc1ccc(-c2nc3ccc(-c4nnc(SCC(=O)N5CCN(Cc6ccc(F)cc6)CC5)o4)cc3[nH]2)cc1 [5i, 2-((5-(2-(4-Ethoxyphenyl)-1H-benzo[d]imidazol-6-yl)-1,3,4-oxadiazol-2-yl)thio)-1-(4-(4-fluorobenzyl)piperazin-1-yl)ethan-1-one]
Human aromatase; [6]
  IC50: 80.4 ± 3.12 µM
[1]
  IC50: 4.52 ± 0.21 µM
[2]; Homo sapiens, MCF7, MTT assay
  IC50: 9.06 ± 0.311 µM
[2]; MTT assay
  IC50: 9.96 ± 0.312 µM
[3]
  IC50: 6 ± 0.227 µM
other
  melting point: 189.9 to 191.4 °C
[4]
  IC50: 42 ± 1.32 µM
[5]
  IC50: 28.7 ± 1.22 µM

## COc1cccc2c1C(=O)c1c(O)c3c(c(O)c1C2=O)C[C@@](O)(C(=O)CO)C[C@@H]3O[C@H]1C[C@H](N)[C@H](O)[C@H](C)O1 [Dox., doxorubicin]
[3]
  IC50: 28.7 ± 1.23 µM

## O=C1Nc2ccccc2C1(c1[nH]c2ccccc2c1CCNS(=O)(=O)c1cccc([N+](=O)[O-])c1)c1[nH]c2ccccc2c1CCNS(=O)(=O)c1cccc([N+](=O)[O-])c1 [compound 61]
aromatase
  Experimental pIC50: 4.924

## O=C1Nc2ccccc2C1(c1[nH]c2ccccc2c1CCNS(=O)(=O)c1ccccc1[N+](=O)[O-])c1[nH]c2ccccc2c1CCNS(=O)(=O)c1ccccc1[N+](=O)[O-] [compound 62]
aromatase
  Experimental pIC50: 5.009

## Cc1ccc(S(=O)(=O)Nc2ccc3[nH]ccc3c2)cc1 [compound 63]
aromatase
  Experimental pIC50: 6.796

## O=S(=O)(Cc1ccccc1)NCCc1c[nH]c2ccccc12 [compound 64]
aromatase
  Experimental pIC50: 6.125

## O=S(=O)(NCCc1c[nH]c2ccccc12)c1ccccc1 [compound 65]
aromatase
  Experimental pIC50: 6.699

## Cc1ccc2[nH]c(-c3ccc(-c4nnc5n4N=C(c4ccc(Cl)cc4)CS5)cc3)nc2c1 [compound 79]
aromatase
  Experimental pIC50: 5.927

## Cc1ccc2nc(-c3ccc(-c4nnc5n4N=C(c4ccc(F)cc4)CS5)cc3)[nH]c2c1 [compound 80]
aromatase
  Experimental pIC50: 5.906

## Cc1ccc2nc(-c3ccc(-c4nnc5n4N=C(c4ccc(C#N)cc4)CS5)cc3)[nH]c2c1 [compound 81]
aromatase
  Experimental pIC50: 5.871

## Cc1ccc2nc(-c3ccc(-c4nnc5n4N=C(c4ccc(F)cc4F)CS5)cc3)[nH]c2c1 [compound 82]
aromatase
  Experimental pIC50: 7.432

## Fc1ccc(C2=Nn3c(nnc3-c3ccc(-c4nc5ccccc5[nH]4)cc3)SC2)cc1 [compound 101]
aromatase
  Experimental pIC50: 5.765

## Fc1ccc(C2=Nn3c(nnc3-c3ccc(-c4nc5ccc(Cl)cc5[nH]4)cc3)SC2)cc1 [compound 102]
aromatase
  Experimental pIC50: 5.643

## N#Cc1ccc(C2=Nn3c(nnc3-c3ccc(-c4nc5ccc(Cl)cc5[nH]4)cc3)SC2)cc1 [compound 103]
aromatase
  Experimental pIC50: 5.806

## Cc1[nH]c2ccccc2c1C=NNc1cccc(F)c1 [compound 104]
aromatase
  Experimental pIC50: 4.939

## Cc1[nH]c2ccccc2c1C=NNc1cc(F)cc(F)c1 [compound 105]
aromatase
  Experimental pIC50: 4.886

## Cc1[nH]c2ccccc2c1C=NNc1cccc(Cl)c1 [compound 106]
aromatase
  Experimental pIC50: 4.718

## Cc1[nH]c2ccccc2c1C=NNc1ccc(Cl)cc1 [compound 107]
aromatase
  Experimental pIC50: 5.062

## OCc1cn(-c2ccccc2Cl)c2ccccc12 [compound 108]
aromatase
  Experimental pIC50: 7.268

## OCc1cn(-c2ccccc2F)c2ccccc12 [compound 109]
aromatase
  Experimental pIC50: 6.907

## OCc1cn(-c2cccc(F)c2)c2ccccc12 [compound 110]
aromatase
  Experimental pIC50: 7.086

## N#Cc1ccc(-n2cc(CO)c3ccccc32)cc1 [compound 111]
aromatase
  Experimental pIC50: 7.301

## Clc1ccccc1-n1cc(Cn2ccnc2)c2ccccc21 [compound 112]
aromatase
  Experimental pIC50: 6.762

## Clc1ccccc1-n1cc(Cn2cncn2)c2ccccc21 [compound 113]
aromatase
  Experimental pIC50: 5.456

## Fc1ccccc1-n1cc(Cn2ccnc2)c2ccccc21 [compound 114]
aromatase
  Experimental pIC50: 6.377

## Fc1cccc(-n2cc(Cn3ccnc3)c3ccccc32)c1 [compound 115]
aromatase
  Experimental pIC50: 5.513

## N#Cc1ccc(-n2cc(Cn3ccnc3)c3ccccc32)cc1 [compound 116]
aromatase
  Experimental pIC50: 5.851
